According to patent publication US20090105206A1, “Copper Melphalan And Copper Tegafur As Anti-Tumor Agents” (priority 2004, published 2009):
Values joined by “and” are separate entries in the source; they are usually repeats but may differ in a detail not shown here. Equal values may be shown once.

What was measured:
[1] = in water: light blue coloring of the solution, foam on shaking
[2] = test system: murine renal cell carcinoma (RENCA) tumor cells applied orthotopically; assay: Example 4: orthotopic renal cell carcinoma model (RENCA), treatment Day 1-7; primary tumor, metastases, vessel density (anti-CD31); type: in vivo, Balb/c mouse; conditions: Melphalan 16.4 μmol/kg (5 mg/kg/d) i.p. Day 1-7, individual animals
Method: (§1) The tests were carried out on a murine renal cell carcinoma model (RENCA) of the Balb/c mouse. The tumor cells were applied orthotopically into the left-hand renal capsule of syngenic mice. The effect of the treatment carried out on a primary tumor (in the implanted kidney), metastases (predominantly in the lungs, spleen and intestinal lymph nodes) and vessel density were investigated.
(§2) After anesthesia by means of isoflurane narcosis (O2— flow approx. 2.0 l with 0.5-1.5% isoflurane) a small incision was made in the mouse's left flank. The kidney was prepared and presented free from the peritoneum. A 27 G needle was introduced via the lower kidney pole through to below the renal capsule with visual inspection, and […] in 70 μl aliquots respectively applied once. The occurrence of a visible liquid-filled blister between kidney parenchyma and renal capsule and the discoloration of the kidneys were regarded as criteria for successful application. The kidney was subsequently reset and the incision into the abdominal wall closed by means of fascia stitches and cutaneous stitches with absorbable stitching material. Five test groups with ten animals respectively were formed. Group 1 negative control, group 2 positive control melphalan (Glaxo), group 3 and 4 MOC melphalan 2.5 mg/kg and 5 mg/kg. In the case of group 5 an antiangiogenically effective substance was applied as the positive control. The start of treatment was fixed for day 1 post op. for Cu(melphalan)2. Treatment was carried out daily up to day seven (see treatment model). The test was ended after 19 days since, owing to their size, the control tumors required termination for ethical reasons.
• The implantation day was counted as day 0. • Duration of the test 19 days. • Number of animals at beginning of test 50, no animals died during the op.
(§3) After selecting the animals the tissues to be examined were quickly transferred into liquid nitrogen and then frozen at −80° C. 5-10 μm thick sections were prepared from the tissue parts. The preparations were immunohistochemically dyed with an anti-CD31 antibody (Pecam-1) and the number of vessels in the control and treatment groups counted. Two sections of each tumor with three areas respectively were used for counting the vessels.

[3] = test system: murine renal cell carcinoma (RENCA) tumor cells applied orthotopically; assay: Example 5: orthotopic RENCA model, late treatment from Day 10; type: in vivo, Balb/c mouse
Method: as §1, §2, §3
The study report matches that of Example 4, differing only in terms of treatment intervals and dose groups. Four test groups with ten animals respectively were formed. Group 1 negative control, group 2 positive control melphalan (Glaxo), groups 3 and 4 Cu(melphalan)2 5 mg/kg and 7.5 mg/kg. The start of treatment was fixed for day 10 post op. for all groups. The intention was for daily treatment from day 10 until day 17 (see treatment model). Owing to toxicities the treatment period was reduced to day 10-14. After 18 days the test was ended since, owing to their size, the control tumors required termination for ethical reasons.
• The implantation day was counted as day 0. • Duration of the test 18 days. • Number of animals at beginning of test 40; no animals died during the op.

OVCAR-3/P19 tumor cells = assay: Example 6: NOD/SCID mice s.c. injected with OVCAR-3 tumor cells; type: in vivo, female NOD/SCID mice; parameters: Vol (tumor volume) Day 20 / Vol (tumor volume) Day 30 / Vol (tumor volume) Day 37: unit: cm^3
Method: 2×10^6 OVCAR-3/P19 tumor cells were s.c. injected into female NOD/SCID mice. The mice were treated as follows.
The treatment began with a mean tumor volume of 80 mm^3.
To level possible differences in tumor volume at the start of treatment in the individual groups and to make evident differences owing to the low absolute volumes in the treatment groups, the relative tumor volumes (RTV) have been analyzed. The relative tumor volume results from the ratio of the volume on day x and the tumor volume at the start of treatment in the same test animal. […] The tumor growth was stopped in group 2 after just 7 days. After 3 days of constant tumor volume a tumor regression began from day 30 (10th day of treatment) in the test animals treated with copper-melphalan.

[4] = Melphalan 16.4 μmol/kg (5 mg/kg/d) i.p. Day 10-14, day 18, individual animals
[5] = Gr. 2, 5 mg/kg melphalan i.p., individual animals
[6] = Gr. 2, 5 mg/kg melphalan i.p., n = 8
[7] = Gr. 2, 5 mg/kg melphalan i.p., n = 8, baseline

In the case of O=c1[n-]c(=O)n(C2CCCO2)cc1F.O=c1[n-]c(=O)n(C2CCCO2)cc1F.[Cu+2] (centres unmarked) [Cu(tegafur)2], the solubility behavior [1] is reported as “substantially matched that of a copper(II) salt”.

With N[C@@H](Cc1ccc(N(CCCl)CCCl)cc1)C(=O)O [Melphalan, 4-[bis-(2-chloroethyl)-amino]-L-phenylalanine] the Kidney weight ([2]; day 19) was 1.70 gr and 0.38 gr and 0.44 gr and 0.13 gr and 1.02 gr and 1.23 gr and 0.12 gr and 0.34 gr and 0.40 gr and 0.65 gr, the Lung weight ([2]; day 19) was 0.12 gr (2×) and 0.20 gr and 0.13 gr and 0.76 gr and 0.10 gr and 0.25 gr and 0.48 gr and 0.22 gr and 0.14 gr and the “Number of intestinal lymph node metastases” value ([2]; day 19) was 0 (6×) and 9 and 2 and 8 and 5. For the same compound, the “Number of lung metastases” value ([2]; day 19) was 7 and 273 and 1 and >750 (2×) and 28 (2×) and 5 and 640 and 328, the Kidney volume ([2]; test ended day 19) was 2.69 cm^3 and 0.58 cm^3 and 1.3 cm^3 and 0.28 cm^3 and 1.76 cm^3 and 2.00 cm^3 and 0.37 cm^3 and 0.77 cm^3 and 1.26 cm^3 and 1.60 cm^3 and the Kidney weight [3, 4] was 2.77 gr and 1.38 gr and 0.69 gr and 2.91 gr and 1.90 gr (2×) and 1.63 gr and 2.11 gr and 1.45 gr and 1.13 gr. For the same compound, the Lung weight [3, 4] was 0.14 gr and 0.15 gr and 0.13 gr (2×) and 0.28 gr and 0.11 gr and 0.38 gr and 0.10 gr and 0.31 gr, the “Number of intestinal lymph node metastases” value [3, 4] was 91 and 0 (3×) and 49 and 17 and 22 and 32 and 84 and the “Number of lung metastases (late treatment day 10-14)” value [3, 4] was 304 and 614 and 317 and 5 and 750 (3×) and 71 and 500 and 46. For the same compound, the “Vessel density, later start of treatment day 10-14” value ([3]; Melphalan 16.4 μmol/kg (5 mg/kg/d) i.p. Day 10-14, individual sections) was 36 (2×) and 28 and 42 and 41 and 68 and 35 and 47 and 32 and 37 and 64 and 62 and 40 (2×) and 34, the Kidney volume ([3]; Melphalan 16.4 μmol/kg (5 mg/kg/d) i.p. from Day 10 (planned 10-17, reduced to 10-14), test ended day 18, individual animals) was 3.94 cm^3 and 2.59 cm^3 and 2.08 cm^3 and 4.25 cm^3 and 2.84 cm^3 and 2.20 cm^3 and 3.91 cm^3 and 3.63 cm^3 and 2.80 cm^3 and 3.23 cm^3 and the “Vol (tumor volume) Day 20” value (OVCAR-3/P19 tumor cells; Gr. 2, 5 mg/kg melphalan i.p. days 21-37 every 2nd day, Day 20 = start of treatment (baseline), individual animals) was 0.04 (2×) and 0.03 and 0.10 (2×) and 0.20 and 0.05 and 0.12. The “RTV (relative tumor volume) Day 20” value (OVCAR-3/P19 tumor cells; Gr. 2, 5 mg/kg melphalan i.p., Day 20 = start of treatment (baseline), individual animals) was 1.00, the “RTV (relative tumor volume) Day 30” value (OVCAR-3/P19 tumor cells; [5]) was 2.75 and 3.00 and 1.40 and 1.75 and 3.20 and 1.42 and 2.20 and 2.50 and the “RTV (relative tumor volume) Day 37” value (OVCAR-3/P19 tumor cells; [5]) was 1.98 and 2.37 and 0.81 and 1.05 and 1.66 and 0.82 and 1.71 and 1.18. The “Vol (tumor volume) Day 30” value (OVCAR-3/P19 tumor cells; [5]) was 0.11 and 0.09 and 0.14 and 0.35 and 0.16 and 0.17 and 0.22 and 0.10, the “Vol (tumor volume) Day 37” value (OVCAR-3/P19 tumor cells; [5]) was 0.08 (3×) and 0.07 and 0.21 and 0.10 and 0.17 and 0.05 and the “RTV Day 30, mean” value (OVCAR-3/P19 tumor cells; [6]) was 2.28. For the same compound, the “RTV Day 30, median” value (OVCAR-3/P19 tumor cells; [6]) was 2.35, the “RTV Day 37, mean” value (OVCAR-3/P19 tumor cells; [6]) was 1.45 and the “RTV Day 37, median” value (OVCAR-3/P19 tumor cells; [6]) was 1.42. For the same compound, the “Vol Day 30, mean” value (OVCAR-3/P19 tumor cells; [6]) was 0.17, the “Vol Day 30, median” value (OVCAR-3/P19 tumor cells; [6]) was 0.15 and the “Vol Day 37, mean” value (OVCAR-3/P19 tumor cells; [6]) was 0.11. The “Vol Day 37, median” value (OVCAR-3/P19 tumor cells; [6]) was 0.08, the “RTV Day 20, mean” value (OVCAR-3/P19 tumor cells; [7]) was 1.00 and the “RTV Day 20, median” value (OVCAR-3/P19 tumor cells; [7]) was 1.00. The “Vol Day 20, mean” value (OVCAR-3/P19 tumor cells; [7]) was 0.09, the “Vol Day 20, median” value (OVCAR-3/P19 tumor cells; [7]) was 0.08 and the “mice with RTV>1 on day 37” value (OVCAR-3/P19 tumor cells; Gr. 2, 5 mg/kg melphalan, 6 of 8 mice) was 75%. The “tumor regression / growth at the end of treatment” value (OVCAR-3/P19 tumor cells; Gr. 2, 5 mg/kg melphalan, range over test animals) was “between 20% tumor regression and 98% growth”.
